biological target: ROCK2 (Homo sapiens, UniProt O75116); assay: ROCK assay: phosphorylation of FITC peptide substrate, LABCHIP 3000 mobility shift; format: biochemical; details: 5 μM ATP, 1.5 μM peptide substrate; read-out: ROCK2 Activity (ROCK IC50 range)
Description: The effectiveness of compounds of the present invention as ROCK inhibitors can be determined in a 30 μL assay containing 20 mM HEPES, pH 7.5, 20 mM MgCl2, 0.015% Brij-35, 4 mM DTT, 5 μM ATP and 1.5 μM peptide substrate (FITC-AHA-AKRRRLSSLRA-OH). Compounds were dissolved in DMSO so that the final concentration of DMSO was <2%, and the reaction was initiated with Rho kinase variants. After incubation, the reaction was terminated by the addition of EDTA and the phosphorylated and non-phosphorylated peptides separated using a LABCHIP® 3000 Reader (Caliper Life Sciences). […] Compounds were tested in dose-response format, and the inhibition of kinase activity was calculated at each concentration of compound. The inhibition data were fit using a curve-fitting program to determine the IC50; i.e., the concentration of compound required to inhibit 50% of kinase activity.
Representative Examples were tested in the ROCK assay described above and found having ROCK inhibitory activity.

ROCK2, sequence (O75116 whole entry, species assumed): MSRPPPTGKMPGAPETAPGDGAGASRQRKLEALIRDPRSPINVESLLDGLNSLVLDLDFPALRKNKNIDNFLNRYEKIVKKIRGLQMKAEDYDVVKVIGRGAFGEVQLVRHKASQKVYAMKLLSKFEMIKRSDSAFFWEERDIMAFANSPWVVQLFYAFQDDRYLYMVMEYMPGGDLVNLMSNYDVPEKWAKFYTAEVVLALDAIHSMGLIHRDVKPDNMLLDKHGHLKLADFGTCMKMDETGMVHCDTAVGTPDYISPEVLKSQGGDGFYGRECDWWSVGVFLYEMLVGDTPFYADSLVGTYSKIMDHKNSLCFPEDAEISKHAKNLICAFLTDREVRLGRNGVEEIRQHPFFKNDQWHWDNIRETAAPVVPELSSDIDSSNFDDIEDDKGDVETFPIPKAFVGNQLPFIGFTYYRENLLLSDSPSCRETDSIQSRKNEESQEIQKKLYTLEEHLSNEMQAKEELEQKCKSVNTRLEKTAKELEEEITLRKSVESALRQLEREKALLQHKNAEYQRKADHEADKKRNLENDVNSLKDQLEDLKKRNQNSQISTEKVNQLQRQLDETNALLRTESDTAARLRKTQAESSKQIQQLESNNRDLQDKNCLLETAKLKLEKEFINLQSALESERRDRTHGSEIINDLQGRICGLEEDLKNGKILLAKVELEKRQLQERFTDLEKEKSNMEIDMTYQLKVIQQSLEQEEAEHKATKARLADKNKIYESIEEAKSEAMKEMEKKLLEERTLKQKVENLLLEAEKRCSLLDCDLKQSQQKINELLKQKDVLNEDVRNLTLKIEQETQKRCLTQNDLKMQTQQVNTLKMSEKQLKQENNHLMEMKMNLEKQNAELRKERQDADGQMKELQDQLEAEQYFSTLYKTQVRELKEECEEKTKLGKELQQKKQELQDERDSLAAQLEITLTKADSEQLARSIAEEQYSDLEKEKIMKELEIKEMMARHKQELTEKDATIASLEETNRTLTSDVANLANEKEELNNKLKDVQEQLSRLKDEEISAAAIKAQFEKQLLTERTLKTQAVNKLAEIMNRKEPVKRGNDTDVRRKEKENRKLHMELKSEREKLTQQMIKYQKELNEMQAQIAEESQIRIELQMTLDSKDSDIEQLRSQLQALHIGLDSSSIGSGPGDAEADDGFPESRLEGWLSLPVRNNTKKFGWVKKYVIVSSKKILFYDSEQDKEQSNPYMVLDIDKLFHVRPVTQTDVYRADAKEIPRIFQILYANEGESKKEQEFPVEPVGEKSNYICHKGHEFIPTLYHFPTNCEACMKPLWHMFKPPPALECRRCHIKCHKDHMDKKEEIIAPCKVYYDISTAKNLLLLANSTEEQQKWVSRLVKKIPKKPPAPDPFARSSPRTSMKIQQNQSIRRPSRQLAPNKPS

IC50 [nM] | Compound
2.01 to 5 | O=C(N[C@H]1CC2(C1)C[C@H](c1n[nH]c(=O)c3ccccc31)C2)c1cnn2cc(OCCN3CC(F)C3)ccc12 (stereo partly drawn) [Example 182, 6-(2-(3-fluoroazetidin-1-yl)ethoxy)-N-((aR)-6-(4-oxo-3,4-dihydrophthalazin-1-yl)spiro[3.3]heptan-2-yl)pyrazolo[1,5-a]pyridine-3-carboxamide]
5.1 to 15 | COCc1ccc2c(C(=O)NC3CC4(C3)CC(c3n[nH]c(=O)c5ccccc35)C4)cnn2c1 [Example 209, 6-(methoxymethyl)-N-((aR)-6-(4-oxo-3,4-dihydrophthalazin-1-yl)spiro[3.3]heptan-2-yl)pyrazolo[1,5-a]pyridine-3-carboxamide]
2.01 to 5 | O=C(N[C@H]1CC2(C1)C[C@H](c1n[nH]c(=O)c3ccccc31)C2)c1cnn2cc(CCC(O)(C(F)(F)F)C(F)(F)F)ccc12 (stereo partly drawn) [Example 199, N-((aR)-6-(4-oxo-3,4-dihydrophthalazin-1-yl)spiro[3.3]heptan-2-yl)-6-(4,4,4-trifluoro-3-hydroxy-3-(trifluoromethyl)butyl)pyrazolo[1,5-a]pyridine-3-carboxamide]
5.1 to 15 | [H][C@]1(c2n[nH]c(=O)c3ccccc32)C[C@]2(C[C@@H](NC(=O)c3ccc4ccn(C)c4c3)C2)C1 (stereo partly drawn) [Example 367, 1-methyl-N-((aR)-6-(4-oxo-3,4-dihydrophthalazin-1-yl)spiro[3.3]heptan-2-yl)-1H-indole-6-carboxamide]
0.2 to 2 | [H][C@]1(c2n[nH]c(=O)c3ccccc32)C[C@]2(C[C@@H](NC(=O)c3cnn4cc(COCC=C)ccc34)C2)C1 (stereo partly drawn) [Example 212, 6-((allyloxy)methyl)-N-((aR)-6-(4-oxo-3,4-dihydrophthalazin-1-yl)spiro[3.3]heptan-2-yl)pyrazolo[1,5-a]pyridine-3-carboxamide]
2.01 to 5 | O=C(NC1CC2(C1)CC(c1n[nH]c(=O)c3ccccc13)C2)c1cnn2cc(OCCN3CCC3)ccc12 [Example 186, 6-(2-(azetidin-1-yl)ethoxy)-N-((aR)-6-(4-oxo-3,4-dihydrophthalazin-1-yl)spiro[3.3]heptan-2-yl)pyrazolo[1,5-a]pyridine-3-carboxamide]
2.01 to 5 | [H][C@]1(c2n[nH]c(=O)c3ccccc32)C[C@]2(C[C@@H](NC(=O)c3cnc4cc(OCCC(F)(F)F)ccn34)C2)C1 (stereo partly drawn) [Example 432, N-((aR)-6-(4-oxo-3,4-dihydrophthalazin-1-yl)spiro[3.3]heptan-2-yl)-7-(3,3,3-trifluoro-propoxy)imidazo[1,2-a]pyridine-3-carboxamide]
15.1 to 100 | [H][C@]1(c2n[nH]c(=O)c3ccccc32)C[C@]2(C[C@@H](NC(=O)c3ccc(-c4cnn(CC)c4)c(F)c3)C2)C1 (stereo partly drawn) [Example 445, 4-(1-ethyl-1H-pyrazol-4-yl)-3-fluoro-N-((aR)-6-(4-oxo-3,4-dihydrophthalazin-1-yl)spiro[3.3]heptan-2-yl)benzamide]
100 to 2100 | [H][C@]1(c2n[nH]c(=O)c3ccccc32)C[C@]2(C[C@@H](NC(=O)c3ccc(C(F)(F)F)nc3)C2)C1 (stereo partly drawn) [Example 342, N-((aR)-6-(4-oxo-3,4-dihydrophthalazin-1-yl)spiro[3.3]heptan-2-yl)-6-(trifluoromethyl) nicotinamide]
2.01 to 5 | [H][C@]1(c2n[nH]c(=O)c3ccccc32)C[C@]2(C[C@@H](NC(=O)c3cnc4ccc(F)cn34)C2)C1 (stereo partly drawn) [Example 408, 6-fluoro-N-((aR)-6-(4-oxo-3,4-dihydrophthalazin-1-yl)spiro[3.3]heptan-2-yl)imidazo[1,2-a]pyridine-3-carboxamide]
5.1 to 15 | O=C(NC1CC2(C1)CC(c1n[nH]c(=O)c3ccccc13)C2)c1cnn2ccc(N3CCOCC3)cc12 [Example 84, 5-morpholino-N-((aR)-6-(4-oxo-3,4-dihydrophthalazin-1-yl)spiro[3.3]heptan-2-yl)pyrazolo[1,5-a]pyridine-3-carboxamide]
0.2 to 2 | CC(C)n1cc(-c2ccc3c(C(=O)NC4CC5(C4)CC(c4n[nH]c(=O)c6ccccc46)C5)cnn3c2)c(C(F)(F)F)n1 [Example 224, 6-(1-isopropyl-3-(trifluoromethyl)-1H-pyrazol-4-yl)-N-((aR)-6-(4-oxo-3,4-dihydrophthalazin-1-yl)spiro[3.3]heptan-2-yl)pyrazolo[1,5-a]pyridine-3-carboxamide]
15.1 to 100 | O=C(N[C@H]1CC2(C1)C[C@H](c1n[nH]c(=O)c3ccccc31)C2)c1cnn2cccc(C3CC3)c12 (stereo partly drawn) [Example 462, 4-cyclopropyl-N-((aR)-6-(4-oxo-3,4-dihydrophthalazin-1-yl)spiro[3.3]heptan-2-yl)pyrazolo[1,5-a]pyridine-3-carboxamide]

The next lines start with the molecule.

Compound | IC50 [nM]
[H][C@]1(c2n[nH]c(=O)c3ccccc32)C[C@]2(C[C@@H](NC(=O)c3ccc4nc(C)oc4c3)C2)C1 (stereo partly drawn) [Example 315, 2-methyl-N-((aR)-6-(4-oxo-3,4-dihydrophthalazin-1-yl)spiro[3.3]heptan-2-yl)benzo[d] oxazole-6-carboxamide] | 15.1 to 100
O=C(NC1CC2(C1)CC(c1n[nH]c(=O)c3ccccc13)C2)c1ccn(C2CC2)n1 [Example 29, 1-cyclopropyl-N-[(aR)-6-(4-oxo-3,4-dihydrophthalazin-1-yl)spiro[3.3]heptan-2-yl]-1H-pyrazole-3-carboxamide] | 5.1 to 15
COc1ccccc1-c1ccc2c(C(=O)NC3CC4(C3)CC(c3n[nH]c(=O)c5ccccc35)C4)nn(CC(C)(C)O)c2c1 (centres unmarked) [Example 157, 1-(2-hydroxy-2-methylpropyl)-6-(2-methoxyphenyl)-N-((αR)-6-(4-oxo-3,4-dihydrophthalazin-1-yl)spiro[3.3]heptan-2-yl)-1H-indazole-3-carboxamide] | 0.2 to 2
O=C(N[C@H]1CC2(C1)C[C@H](c1n[nH]c(=O)c3ccccc31)C2)N1CCc2cc(Br)ccc21 (stereo partly drawn) [Example 234, 5-Bromo-N-((aR)-6-(4-oxo-3,4-dihydrophthalazin-1-yl)spiro[3.3]heptan-2-yl)indoline-1-carboxamide] | 2.01 to 5
[H][C@]1(c2n[nH]c(=O)c3ccccc32)C[C@]2(C[C@@H](NC(=O)c3ccc(-n4cncn4)cc3)C2)C1 (stereo partly drawn) [Example 348, N-((aR)-6-(4-oxo-3,4-dihydrophthalazin-1-yl)spiro[3.3]heptan-2-yl)-4-(1H-1,2,4-triazol-1-yl)benzamide] | 15.1 to 100
CC(C)(C)n1cc(C(=O)NC2CC3(C2)CC(c2n[nH]c(=O)c4ccccc24)C3)cn1 (centres unmarked) [Example 9, 1-tert-butyl-N-[6-(4-oxo-3,4-dihydrophthalazin-1-yl)spiro[3.3]heptan-2-yl]-1H-pyrazole-4-carboxamide] | 15.1 to 100
O=C(NC1CC2(C1)CC(c1n[nH]c(=O)c3ccccc13)C2)c1ccn(-c2ccccc2)n1 (centres unmarked) [Example 10, N-[6-(4-oxo-3,4-dihydrophthalazin-1-yl)spiro[3.3]heptan-2-yl]-1-phenyl-1H-pyrazole-3-carboxamide] | 100 to 2100
O=c1[nH]nc([C@H]2CC3(C[C@H](Nc4ncc(-c5ccccc5)o4)C3)C2)c2ccccc12 (stereo partly drawn) [Example 44, 4-((aR)-6-((5-phenyloxazol-2-yl)amino)spiro[3.3]heptan-2-yl)phthalazin-1(2H)-one(2H)-one] | 100 to 2100
[H][C@]1(c2n[nH]c(=O)c3ccccc32)C[C@@]2(C[C@H](NC(=O)c3cc4ccccc4[nH]3)C2)C1 (stereo partly drawn) [Example 298, N-((aR)-6-(4-oxo-3,4-dihydrophthalazin-1-yl)spiro[3.3]heptan-2-yl)-1H-indole-2-carboxamide] | 5.1 to 15
[H][C@]1(c2n[nH]c(=O)c3ccccc32)C[C@]2(C[C@@H](NC(=O)c3ccc(-n4ccnc4)cc3)C2)C1 (stereo partly drawn) [Example 359, 4-(1H-imidazol-1-yl)-N-((aR)-6-(4-oxo-3,4-dihydrophthalazin-1-yl)spiro[3.3]heptan-2-yl)benzamide] | 100 to 2100
Cc1sc(N2CCC(F)C2)nc1C(=O)NC1CC2(C1)CC(c1n[nH]c(=O)c3ccccc13)C2 [Example 58, 2-((S)-3-fluoropyrrolidin-1-yl)-5-methyl-N-((aR)-6-(4-oxo-3,4-dihydrophthalazin-1-yl)spiro[3.3]heptan-2-yl)thiazole-4-carboxamide] | 2.01 to 5
[H][C@]1(c2n[nH]c(=O)c3ccccc32)C[C@]2(C[C@@H](NC(=O)c3cnc4cc(N5CCC(F)(F)C5)ccn34)C2)C1 (stereo partly drawn) [Example 392, 7-(3,3-difluoropyrrolidin-1-yl)-N-((aR)-6-(4-oxo-3,4-dihydrophthalazin-1-yl)spiro[3.3]heptan-2-yl)imidazo[1,2-a]pyridine-3 carboxamide] | 0.2 to 2
O=C(N[C@H]1CC2(C1)C[C@H](c1n[nH]c(=O)c3ccccc31)C2)c1ccn(CC(F)(F)F)n1 (single isomer, unassigned) [Example 15] | 5.1 to 15
O=C(NC1CC2(C1)CC(c1n[nH]c(=O)c3ccccc13)C2)c1ccnn1CCC(F)(F)F [Example 101, N-((aR)-6-(4-oxo-3,4-dihydrophthalazin-1-yl)spiro[3.3]heptan-2-yl)-1-(3,3,3-trifluoropropyl)-1H-pyrazole-5-carboxamide] | 15.1 to 100
[H][C@]1(c2n[nH]c(=O)c3ccccc32)C[C@]2(C[C@@H](NC(=O)c3ccc(OC(C)C)c(C#N)c3)C2)C1 (stereo partly drawn) [Example 353, 3-cyano-4-isopropoxy-N-((aR)-6-(4-oxo-3,4-dihydrophthalazin-1-yl)spiro[3.3]heptan-2-yl)benzamide] | 5.1 to 15
CC(C)(O)Cn1nc(C(=O)NC2CC3(C2)CC(F)(c2n[nH]c(=O)c4ccccc24)C3)c2ccccc21 (centres unmarked) [Example 162, N-(6-fluoro-6-(4-oxo-3,4-dihydrophthalazin-1-yl)spiro[3.3]heptan-2-yl)-1-(2-hydroxy-2-methylpropyl)-1H-indazole-3-carboxamide] | 15.1 to 100

— patent US9902702B2, “Spirocycloheptanes as inhibitors of rock” (BRISTOL-MYERS SQUIBB COMPANY, priority 2014, dated 2018)
